Broadly, the IC50 is the concentration at which inhibition is half-maximal. In general, inhibition refers to the share of the control response that was lost under treatment. In general, Cmax refers to the highest concentration seen after dosing. One may read the CL/F as the apparent clearance, not corrected for the fraction that reaches the circulation.

The record followed here is ChEMBL document CHEMBL5346903, “Discovery of novel and bioavailable histone deacetylases and cyclin-dependent kinases dual inhibitor to impair the stemness of leukemia cells” (Eur J Med Chem, 2023).

The structures appear in SMILES notation.

Data set [1] deals with HL-60. The data set is described as follows: Induction of apoptosis in human HL-60 cells assessed as viable cells at 1.2 uM incubated for 48 hrs by annexin V-FITC/PI satining based flow cytometry (reference value: 94.7 %). In kind it is functional. The settings on record: read-out: Activity. A general note: Flow cytometry measures light scatter and fluorescence of single cells or particles in a stream.

Data set [2] deals with HL-60. The data set is described as follows: Induction of apoptosis in human HL-60 cells assessed as early apoptotic cells at 0.6 uM incubated for 48 hrs by annexin V-FITC/PI satining based flow cytometry (reference value: 2.4 %). Format: functional.
Data set [3] is described as follows: Antiproliferative activity against human SKNO-1 cells incubated for 72 hrs by CCK8 assay. The settings on record: SKNO-1, 72 h. In kind it is functional, cell-based. In general terms: Tetrazolium dyes change colour on reduction, which living cells bring about.
Data set [4] deals with U-937. Briefly: Induction of apoptosis in human U-937 cells assessed as early apoptotic cells at 1.2 uM incubated for 48 hrs by annexin V-FITC/PI satining based flow cytometry (reference value: 1.93 %). In kind it is functional.
For data set [5], the system named is U-937. The data set is described as follows: Antiproliferative activity against human U-937 cells incubated for 72 hrs by CCK8 assay. In kind it is functional, cell-based. The settings on record: U-937, 72 h.
Data set [6] can be described thus: Cytotoxicity against human Kasumi 1 cells assessed as CD34positive CD38negative leukemic stem cell-like cells sub-population at 1 uM incubated for 24 hrs by APC/FITC satining based flow cytometry (reference value: 95.8 %). In kind it is functional.
The test system of data set [7] is U-937. Briefly: Induction of differentiation in human U-937 cells assessed as increase in CD11b positive cells at 1.2 uM incubated for 48 hrs by FITC staining based flow cytometry (reference value: […] %). Format: functional.
Data set [8] relates to U-937. The data set is described as follows: Inhibition of colony formation in human U-937 cells treated for 15 days by soft agar assay. Format: functional, cell-based. The settings on record: time 15.0 day.
A further data set concerns Kasumi 1. The data set is described as follows: Antiproliferative activity against human Kasumi 1 cells incubated for 72 hrs by CCK8 assay. The settings on record: Kasumi 1, 72 h. In kind it is functional, cell-based.
Data set [9] can be described thus: Cytotoxicity against human Kasumi 1 cells assessed as CD34positive CD38negative leukemic stem cell-like cells sub-population at 2 uM incubated for 24 hrs by APC/FITC satining based flow cytometry (reference value: 95.8 %). In kind it is functional.
Data set [10] has as its system HL-60. The data set is described as follows: Inhibition of colony formation in human HL-60 cells treated for 15 days by soft agar assay. Format: functional, cell-based. The settings on record: time 15.0 day.
Data set [11] deals with HL-60. Briefly: Antiproliferative activity against human HL-60 cells incubated for 72 hrs by CCK8 assay. Format: functional, cell-based. The settings on record: HL-60, 72 h.
The test system of data set [12] is HL-60. Briefly: Induction of apoptosis in human HL-60 cells assessed as necrotic cells at 2 uM incubated for 48 hrs by annexin V-FITC/PI satining based flow cytometry (reference value: 0.00 %). In kind it is functional.
For data set [13], the system named is HL-60. The data set is described as follows: Induction of differentiation in human HL-60 cells assessed as increase in CD11b positive cells at 1.5 uM incubated for 24 hrs by FITC staining based flow cytometry (reference value: 1.45 %). Format: functional.
The test system of data set [14] is U-937. The data set is described as follows: Induction of apoptosis in human U-937 cells assessed as viable cells at 1 uM incubated for 48 hrs by annexin V-FITC/PI satining based flow cytometry (reference value: 90.0 %). Format: functional. The settings on record: read-out: Activity.
Data set [15] has as its system HL-60. The data set is described as follows: Induction of apoptosis in human HL-60 cells assessed as viable cells at 0.5 uM incubated for 48 hrs by annexin V-FITC/PI satining based flow cytometry (reference value: 97.4 %). In kind it is functional. The settings on record: read-out: Activity.
Data set [16] can be described thus: Cmax in Sprague-Dawley rat at 25 mg/kg, po measured upto 8 hrs by LC/MS-MS analysis. Format: ADME, organism-based. More on the design: time < 8 hrs, dose 25 mg/kg, route po. The settings on record: in vivo.
Data set [17] relates to U-937. Briefly: Induction of differentiation in human U-937 cells assessed as increase in CD11b positive cells at 2 uM incubated for 48 hrs by FITC staining based flow cytometry (reference value: 2.72 %). Format: functional.
Another data set concerns the target Histone deacetylase 9 (Homo sapiens, UniProt Q9UKV0). The data set is described as follows: Inhibition of recombinant human HDAC9 using HDAC substrate incubated for 30 mins by fluorescence based assay.
Data set [18] addresses CDK6/cyclin D1 (Homo sapiens) (UniProt P24385+Q00534). Briefly: Inhibition of CDK6/cyclinD1 (unknown origin) at 100 nM preincubated for 20 mins followed by [gamma-33P]ATP addition measured after 120 mins in presence of ATP by Hot-SpotSM kinase assay relative to control. Format: protein-complex assay. The settings on record: time 140.0 min.
In a further data set the target is Histone deacetylase 7 (Homo sapiens, UniProt Q8WUI4). Briefly: Inhibition of recombinant human HDAC7 using HDAC substrate incubated for 30 mins by fluorescence based assay.
Data set [19] can be described thus: Clearance in Sprague-Dawley rat at 25 mg/kg, po measured upto 8 hrs by LC/MS-MS analysis. In kind it is ADME, organism-based. The settings on record: in vivo.
A short description of data set [20]: Cytotoxicity against human Kasumi 1 cells assessed as CD34positive CD38negative leukemic stem cell-like cells sub-population at 1 uM incubated for 24 hrs by APC/FITC satining based flow cytometry (reference value: 96.8 %). Format: functional.
The target in data set [21] is Cyclin-dependent kinase 2/cyclin E1 (Homo sapiens) (UniProt P24864+P24941). The settings on record: dose 100.0 nM, time 140.0 min.
The test system of data set [22] is U-937. The data set is described as follows: Induction of apoptosis in human U-937 cells assessed as early apoptotic cells at 2 uM incubated for 48 hrs by annexin V-FITC/PI satining based flow cytometry (reference value: 0.945 %). In kind it is functional.
Data set [23] relates to U-937. Briefly: Induction of apoptosis in human U-937 cells assessed as viable cells at 2 uM incubated for 48 hrs by annexin V-FITC/PI satining based flow cytometry (reference value: 90.0 %). The settings on record: read-out: Activity. In kind it is functional.
Data set [24] concerns the target CDK12/Cyclin K (Homo sapiens) (UniProt O75909+Q9NYV4). The data set is described as follows: Inhibition of CDK12/cyclinK (unknown origin) at 100 nM preincubated for 20 mins followed by [gamma-33P]ATP addition measured after 120 mins in presence of ATP by Hot-SpotSM kinase assay relative to control. In kind it is protein-complex assay. The settings on record: time 140.0 min.

The nature of data set [25]: Antiproliferative activity against HEK293T cells incubated for 72 hrs by CCK8 assay. In kind it is toxicity, cell-based, HEK-293T. The settings on record: human.
For data set [26], the system named is HL-60. Briefly: Induction of apoptosis in human HL-60 cells assessed as necrotic cells at 0.2 uM incubated for 48 hrs by annexin V-FITC/PI satining based flow cytometry (reference value: 0.00 %). Format: functional.
Data set [27] is described as follows: Cytotoxicity against human Kasumi 1 cells assessed as CD34positive CD38negative leukemic stem cell-like cells sub-population at 0.5 uM incubated for 24 hrs by APC/FITC satining based flow cytometry (reference value: 96.8 %). Format: functional.
Data set [28] relates to U-937. Briefly: Induction of apoptosis in human U-937 cells assessed as late apoptotic cells at 0.5 uM incubated for 48 hrs by annexin V-FITC/PI satining based flow cytometry (reference value: 7.10 %). Format: functional.
The target of data set [29] is Cyclin-dependent kinase 13/Cyclin-K (Homo sapiens) (UniProt Q14004+O75909). The data set is described as follows: Inhibition of CDK13/cyclinK (unknown origin) at 100 nM preincubated for 20 mins followed by [gamma-33P]ATP addition measured after 120 mins in presence of ATP by Hot-SpotSM kinase assay relative to control. The settings on record: time 140.0 min. Format: protein-complex assay.

For data set [30], the target named is CDK9/cyclin T1 (Homo sapiens) (UniProt O60563+P50750). The data set is described as follows: Inhibition of CDK9/cyclinT1 (unknown origin) at 100 nM preincubated for 20 mins followed by [gamma-33P]ATP addition measured after 120 mins in presence of ATP by Hot-SpotSM kinase assay relative to control. In kind it is protein-complex assay. The settings on record: time 140.0 min.

For data set [31], the target named is Cyclin-dependent kinase 4/cyclin D1 (Homo sapiens) (UniProt P11802+P24385). Briefly: Inhibition of CDK4/cyclinD1 (unknown origin) at 100 nM preincubated for 20 mins followed by [gamma-33P]ATP addition measured after 120 mins in presence of ATP by Hot-SpotSM kinase assay relative to control. Format: protein-complex assay. The settings on record: time 140.0 min.

Histone deacetylase 9, sequence (Q9UKV0 whole entry): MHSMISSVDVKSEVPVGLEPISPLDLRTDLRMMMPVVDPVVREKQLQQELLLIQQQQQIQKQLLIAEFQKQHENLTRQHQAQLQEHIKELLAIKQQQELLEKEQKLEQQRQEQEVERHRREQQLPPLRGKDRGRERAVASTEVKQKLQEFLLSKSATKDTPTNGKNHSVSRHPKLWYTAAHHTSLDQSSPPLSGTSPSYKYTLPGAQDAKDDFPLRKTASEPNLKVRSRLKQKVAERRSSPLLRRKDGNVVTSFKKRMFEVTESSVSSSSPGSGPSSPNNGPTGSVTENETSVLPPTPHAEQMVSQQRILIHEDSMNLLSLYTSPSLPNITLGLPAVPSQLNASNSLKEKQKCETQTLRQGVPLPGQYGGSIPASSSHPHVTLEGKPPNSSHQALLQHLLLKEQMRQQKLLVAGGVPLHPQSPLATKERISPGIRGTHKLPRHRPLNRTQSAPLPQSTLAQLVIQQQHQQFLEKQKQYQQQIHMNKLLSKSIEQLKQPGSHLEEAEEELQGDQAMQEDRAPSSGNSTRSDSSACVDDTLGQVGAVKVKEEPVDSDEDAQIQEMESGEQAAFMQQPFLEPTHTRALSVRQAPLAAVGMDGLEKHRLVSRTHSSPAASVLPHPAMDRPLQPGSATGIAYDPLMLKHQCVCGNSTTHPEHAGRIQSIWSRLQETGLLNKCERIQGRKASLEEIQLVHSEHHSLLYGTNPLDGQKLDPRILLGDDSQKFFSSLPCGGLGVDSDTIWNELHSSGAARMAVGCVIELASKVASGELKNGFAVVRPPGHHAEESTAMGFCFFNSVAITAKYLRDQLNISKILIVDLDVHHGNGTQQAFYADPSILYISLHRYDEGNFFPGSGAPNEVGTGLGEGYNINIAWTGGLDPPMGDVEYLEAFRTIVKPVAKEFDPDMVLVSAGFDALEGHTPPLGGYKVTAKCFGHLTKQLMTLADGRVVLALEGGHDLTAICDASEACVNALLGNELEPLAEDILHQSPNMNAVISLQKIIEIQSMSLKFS
Histone deacetylase 7, sequence (Q8WUI4 whole entry): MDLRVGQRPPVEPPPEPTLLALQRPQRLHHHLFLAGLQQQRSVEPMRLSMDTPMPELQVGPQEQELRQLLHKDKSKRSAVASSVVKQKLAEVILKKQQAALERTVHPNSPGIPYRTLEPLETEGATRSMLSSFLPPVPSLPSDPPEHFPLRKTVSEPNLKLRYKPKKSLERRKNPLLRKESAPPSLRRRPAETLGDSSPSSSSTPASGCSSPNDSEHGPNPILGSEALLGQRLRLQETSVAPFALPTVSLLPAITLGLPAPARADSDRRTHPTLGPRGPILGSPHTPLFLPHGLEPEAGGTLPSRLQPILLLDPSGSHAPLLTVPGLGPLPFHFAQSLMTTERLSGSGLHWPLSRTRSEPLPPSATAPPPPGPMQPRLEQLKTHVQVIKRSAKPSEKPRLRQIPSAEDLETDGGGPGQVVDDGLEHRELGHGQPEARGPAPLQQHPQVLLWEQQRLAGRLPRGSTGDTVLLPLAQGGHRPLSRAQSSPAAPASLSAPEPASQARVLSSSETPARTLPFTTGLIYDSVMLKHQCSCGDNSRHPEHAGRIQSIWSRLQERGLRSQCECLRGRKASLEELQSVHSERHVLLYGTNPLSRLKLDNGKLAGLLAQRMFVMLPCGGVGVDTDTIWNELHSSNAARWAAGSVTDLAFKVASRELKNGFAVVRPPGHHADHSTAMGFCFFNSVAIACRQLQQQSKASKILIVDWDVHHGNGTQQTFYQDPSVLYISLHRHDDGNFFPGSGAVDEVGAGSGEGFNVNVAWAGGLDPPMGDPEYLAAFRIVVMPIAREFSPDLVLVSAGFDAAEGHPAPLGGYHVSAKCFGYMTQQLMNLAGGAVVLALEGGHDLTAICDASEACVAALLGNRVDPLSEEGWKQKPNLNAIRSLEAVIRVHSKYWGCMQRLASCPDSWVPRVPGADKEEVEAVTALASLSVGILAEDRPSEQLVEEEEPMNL
CDK12/Cyclin K (Homo sapiens), sequence (O75909 whole entry, looked up): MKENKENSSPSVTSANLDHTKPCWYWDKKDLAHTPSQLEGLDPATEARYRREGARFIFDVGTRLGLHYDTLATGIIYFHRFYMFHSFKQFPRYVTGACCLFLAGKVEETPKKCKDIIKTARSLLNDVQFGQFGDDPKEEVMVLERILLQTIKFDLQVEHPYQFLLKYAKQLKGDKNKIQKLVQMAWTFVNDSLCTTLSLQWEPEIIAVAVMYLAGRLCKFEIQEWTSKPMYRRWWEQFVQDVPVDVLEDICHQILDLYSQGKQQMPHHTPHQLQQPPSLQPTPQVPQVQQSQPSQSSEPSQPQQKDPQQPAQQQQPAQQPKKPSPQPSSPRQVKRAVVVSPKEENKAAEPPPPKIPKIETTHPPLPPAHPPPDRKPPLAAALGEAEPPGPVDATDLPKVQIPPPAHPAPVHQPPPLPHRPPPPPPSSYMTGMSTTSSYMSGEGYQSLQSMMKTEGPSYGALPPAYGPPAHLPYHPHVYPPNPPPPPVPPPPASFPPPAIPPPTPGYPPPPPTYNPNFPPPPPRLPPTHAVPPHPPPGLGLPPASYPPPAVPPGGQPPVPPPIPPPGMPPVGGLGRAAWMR
CDK12/Cyclin K (Homo sapiens), sequence (Q9NYV4 whole entry, looked up): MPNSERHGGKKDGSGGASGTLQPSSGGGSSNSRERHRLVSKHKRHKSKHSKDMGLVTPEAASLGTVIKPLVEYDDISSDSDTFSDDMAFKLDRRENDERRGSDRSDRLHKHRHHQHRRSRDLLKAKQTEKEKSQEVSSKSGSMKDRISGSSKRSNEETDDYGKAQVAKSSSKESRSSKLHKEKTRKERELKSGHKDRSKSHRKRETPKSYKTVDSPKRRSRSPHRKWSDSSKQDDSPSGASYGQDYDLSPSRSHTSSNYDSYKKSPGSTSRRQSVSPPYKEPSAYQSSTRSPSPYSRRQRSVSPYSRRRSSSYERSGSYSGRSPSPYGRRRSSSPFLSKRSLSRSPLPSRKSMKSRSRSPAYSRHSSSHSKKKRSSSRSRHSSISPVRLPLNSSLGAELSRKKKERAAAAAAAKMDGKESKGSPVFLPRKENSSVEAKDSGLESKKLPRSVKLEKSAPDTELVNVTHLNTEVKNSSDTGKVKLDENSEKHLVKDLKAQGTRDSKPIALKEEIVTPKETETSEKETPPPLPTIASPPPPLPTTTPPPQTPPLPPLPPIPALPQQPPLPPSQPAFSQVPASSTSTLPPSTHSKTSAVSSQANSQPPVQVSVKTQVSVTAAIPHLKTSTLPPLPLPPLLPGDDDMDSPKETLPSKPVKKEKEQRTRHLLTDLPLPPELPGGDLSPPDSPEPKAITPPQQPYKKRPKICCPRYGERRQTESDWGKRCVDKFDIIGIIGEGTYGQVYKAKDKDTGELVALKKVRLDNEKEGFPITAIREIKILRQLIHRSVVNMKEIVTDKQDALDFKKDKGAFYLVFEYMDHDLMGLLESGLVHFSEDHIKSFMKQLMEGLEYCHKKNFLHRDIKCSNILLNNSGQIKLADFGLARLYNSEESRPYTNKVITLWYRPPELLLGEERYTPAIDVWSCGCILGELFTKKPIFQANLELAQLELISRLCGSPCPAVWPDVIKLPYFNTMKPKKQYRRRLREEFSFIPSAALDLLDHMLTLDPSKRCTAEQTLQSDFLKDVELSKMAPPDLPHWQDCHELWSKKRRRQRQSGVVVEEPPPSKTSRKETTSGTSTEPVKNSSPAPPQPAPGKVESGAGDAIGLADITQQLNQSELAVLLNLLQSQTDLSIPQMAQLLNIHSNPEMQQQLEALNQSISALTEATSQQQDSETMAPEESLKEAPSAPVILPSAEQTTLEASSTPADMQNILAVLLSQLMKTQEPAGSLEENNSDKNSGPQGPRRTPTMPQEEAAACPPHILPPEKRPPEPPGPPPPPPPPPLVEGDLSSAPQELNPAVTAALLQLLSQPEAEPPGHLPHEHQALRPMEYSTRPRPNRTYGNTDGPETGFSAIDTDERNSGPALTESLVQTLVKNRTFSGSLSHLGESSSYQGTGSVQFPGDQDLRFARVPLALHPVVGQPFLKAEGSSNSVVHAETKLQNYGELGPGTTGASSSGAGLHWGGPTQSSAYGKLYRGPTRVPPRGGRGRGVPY

Regarding `Nc1cc(F)ccc1NC(=O)c1ccc(CNC(=O)/C=C/c2cccnc2)cc1` [TUCIDINOSTAT], the viability at 1.2 µM in the data set on HL-60 [1] worked out at 84.7%. Further, the Activity in the data set on HL-60 [2] was found to be 2.52%; in the data set with U-937 [4], 2.74%; in [6], 88.5%; in the data set with U-937 [7], 5%; in data set [9] it was 77.8%. Besides, the IC50 was 5.57 µM in data set [3], 4.66 µM with U-937 [5], > 10 µM in the data set on Kasumi 1 and 3.11 µM with HL-60 [11]. The inhibition result in the data set with U-937 [8] and in the data set on HL-60 [10] was “Dose-Dependent Effect” each time.
Consider `Nc1ccccc1NC(=O)c1ccc(NC(=O)c2n[nH]cc2NC(=O)c2c(Cl)cccc2Cl)cc1`, for which the Activity in the data set with HL-60 [12] was 4.87%; in the data set with HL-60 [13], 50.9%; in the data set with U-937 [17], 18.5%; in data set [20], 35.3%; in the data set on U-937 [22], 2.14%; in the data set on HL-60 [26], 0.02%. For the same molecule, the Activity turned out to be 45.4% in data set [27] and 14% in the data set on U-937 [28]. Besides, the viability at 1 µM with U-937 [14] is 48.9%. Further, the viability at 0.5 µM in the data set with HL-60 [15] was 94.4%. The IC50 was 1.63 µM in data set [3]; 0.72 µM in the data set with U-937 [5]; > 1 µM on Histone deacetylase 9; > 1 µM on Histone deacetylase 7; 0.89 µM in the data set on Kasumi 1; 1.43 µM in the data set with HL-60 [11]. In data set [16], this molecule showed a Cmax of 1430 ng/mL. In addition, the inhibition in data set [18] is 58.2%; in data set [21], 57.5%; in [24], 98.8%; in the data set with U-937 [8], “Dose-Dependent Effect”; in [29] it was 100%; in [30] it was 98.3%. Further, the inhibition in data set [31] is 53.7%; in the data set on HL-60 [10] it was “Dose-Dependent Effect”. This molecule showed a CL/F in data set [19] of 28.8 mL/min/kg. The viability at 2 µM in the data set on U-937 [23] is 5.82%. The IC50 at 72 h in data set [25] was > 20 µM.
